Some test systems named below: CAKI-1 renal; EKVX NSCLC; HL-60(TB) leukemia; IGROV1 ovarian; MDA-MB-231 breast; MDA-N; NCI-H226 lung; SK-MEL-5 melanoma; COLO 205 colon; RPMI-8226 leukemia.
Common to all, as to test: NCI anticancer screen, dose series, 48 h

The text below walks through data of PubChem BioAssay (NCI).

The structures appear in SMILES notation.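 Where inhibition never reached the appropriate level, the endpoint shown equals the highest concentration tested. Otherwise, values were interpolated linearly from a five-concentration, 48-hour dose response in 96-well plates. TGI denotes the concentration required for complete inhibition of growth.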

Regarding `O=c1ccc2ccc(CBr)cc2o1`, the TGI is 2.89 µM in the assay with CAKI-1 renal; 5.94 µM in the assay on EKVX NSCLC; 3.58 µM in the assay on HL-60(TB) leukemia; 13.1 µM with IGROV1 ovarian; 4.14 µM in the assay on MDA-MB-231 breast; 15.1 µM in the assay on MDA-N. The TGI in the assay on NCI-H226 lung amounted to 23 µM; with SK-MEL-5 melanoma, 8.96 µM.

In the case of `Cc1ccc(Cc2cc(N3CCN(c4cccc(Cl)c4)CC3)nnc2C)cc1`, the TGI with CAKI-1 renal is above 100 µM; in the assay on COLO 205 colon, 73.8 µM; in the assay on EKVX NSCLC, above 100 µM; in the assay on MDA-MB-231 breast it was above 100 µM; with MDA-N, above 100 µM; in the assay on RPMI-8226 leukemia, above 100 µM. In the assay on SK-MEL-5 melanoma, this compound registered a TGI of 41.6 µM.

For the compound `CC(C)=CC1C(C(=O)Oc2ccccc2C(C)C)C1(C)C` (stereo unspecified), the TGI in the assay with CAKI-1 renal was above 100 µM; in the assay on EKVX NSCLC, 36.5 µM; in the assay with HL-60(TB) leukemia, 38.5 µM; with IGROV1 ovarian, above 100 µM; with MDA-MB-231 breast, 52 µM; in the assay with MDA-N it was 90 µM. In addition, the TGI with RPMI-8226 leukemia worked out at 48.2 µM; in the assay on SK-MEL-5 melanoma, 33.9 µM.

As for `CNC(=O)N(CCC#N)CCN(C(=O)NC)c1ccccc1`, the TGI in the assay with CAKI-1 renal, in the assay on COLO 205 colon, in the assay with EKVX NSCLC, in the assay with IGROV1 ovarian, in the assay on MDA-MB-231 breast and in the assay on MDA-N was above 100 µM each time. The TGI in the assay on NCI-H226 lung, in the assay with RPMI-8226 leukemia and in the assay with SK-MEL-5 melanoma was above 100 µM throughout.

Regarding `COc1ccccc1NC(=S)N=Nc1c(O)[nH]c2ccccc12`, the TGI in the assay with CAKI-1 renal, in the assay with COLO 205 colon, in the assay on EKVX NSCLC, in the assay with IGROV1 ovarian, in the assay on MDA-MB-231 breast and with MDA-N was above 100 µM throughout. The TGI in the assay on NCI-H226 lung, in the assay with RPMI-8226 leukemia and with SK-MEL-5 melanoma was above 100 µM throughout.

On to `O[C@@H]1C[C@H](Cl)c2c(Cl)sc(Cl)c21`, for which the TGI in the assay with CAKI-1 renal, in the assay with COLO 205 colon, in the assay on EKVX NSCLC, with IGROV1 ovarian, with MDA-MB-231 breast and with MDA-N was above 100 µM each time. For the same compound, the TGI in the assay on RPMI-8226 leukemia and with SK-MEL-5 melanoma was above 100 µM throughout.

Turning to `O=C(NC(=S)Nc1ccc([N+](=O)[O-])cc1)c1ccc2c(c1)Sc1ccccc1O2`, the TGI in the assay on CAKI-1 renal, in the assay with COLO 205 colon, with HL-60(TB) leukemia, with IGROV1 ovarian, in the assay on MDA-MB-231 breast and in the assay with MDA-N was above 100 µM each time. The TGI in the assay with NCI-H226 lung and in the assay with SK-MEL-5 melanoma was above 100 µM in each case.

Turning to `O=C(c1ccccc1)N1CCN(C(=S)NC2CCCCC2)C1=S`, the TGI amounted to 62.4 µM in the assay on CAKI-1 renal; 34 µM in the assay with COLO 205 colon; 38.3 µM in the assay with EKVX NSCLC; 50.3 µM in the assay on HL-60(TB) leukemia; 60.8 µM with IGROV1 ovarian; 21.1 µM in the assay on MDA-MB-231 breast. The TGI worked out at 42.8 µM with MDA-N, 36.1 µM with NCI-H226 lung and 34.4 µM in the assay with SK-MEL-5 melanoma.

Take `Cc1cc2c(c(C(=O)NCC(=O)N[C@@H](C)C(=O)OCc3ccccc3)c1)Oc1c(cc(C)cc1C(=O)NCC(=O)N[C@@H](C)C(=O)OCc1ccccc1)S2`: the TGI in the assay with CAKI-1 renal, in the assay on COLO 205 colon, in the assay with EKVX NSCLC, in the assay with IGROV1 ovarian, in the assay with MDA-MB-231 breast and in the assay with MDA-N was above 100 µM each time. Also, the TGI with NCI-H226 lung, with RPMI-8226 leukemia and in the assay on SK-MEL-5 melanoma was above 100 µM in each case.

`Cc1c(Cc2ccccc2)n(C(C)OCCN(OC(=O)Oc2ccccc2)C(=O)Oc2ccccc2)c(=O)[nH]c1=O` (stereo unspecified): the TGI in the assay with CAKI-1 renal worked out at 33.9 µM; in the assay on COLO 205 colon, 34.9 µM; with EKVX NSCLC, 30.4 µM; in the assay with IGROV1 ovarian it was 31.7 µM; in the assay on MDA-MB-231 breast it was 38.5 µM; with MDA-N, 41.4 µM. The results for the TGI with RPMI-8226 leukemia and with SK-MEL-5 melanoma were 79.6 µM and 28.4 µM, respectively.

As to `Cc1ccccc1NC(=O)Cc1csc(N/N=C2\NC(=O)/C(=C/c3cccc([N+](=O)[O-])c3)S2)n1`, the TGI in the assay on CAKI-1 renal is 35.7 µM; in the assay on COLO 205 colon it was above 100 µM; in the assay on EKVX NSCLC, 32.8 µM; in the assay on HL-60(TB) leukemia, 39.5 µM; in the assay on IGROV1 ovarian, 34.3 µM; in the assay with MDA-MB-231 breast, 57.3 µM. The TGI is above 100 µM in the assay on MDA-N, 39.1 µM in the assay with NCI-H226 lung and 64.8 µM in the assay with SK-MEL-5 melanoma.

Consider `COc1ccc2c(c1)CC[C@@H]1C2CC[C@]2(C)C(=O)N(CCN(C)C)C(=O)CC12` (stereo partly specified), for which the TGI with CAKI-1 renal, with COLO 205 colon, in the assay with EKVX NSCLC, in the assay on HL-60(TB) leukemia, with IGROV1 ovarian and with MDA-MB-231 breast was above 100 µM each time. The TGI with MDA-N, in the assay on NCI-H226 lung and in the assay on SK-MEL-5 melanoma was above 100 µM each time.
